Experiments:
[1] = tested on: MCF10CAT1k.cl2 (M-II) and MCF10CA1a.cl1 cells; assay: MTT assay of paclitaxel resistance after treatment with LMCD1-containing conditioned media; assay type: cell-based, human; conditions: cells treated with conditioned media of LMCD1-overexpressing MCF10CA1a.cl1 cells
Method: For MTT assay to examine resistance to paclitaxel, the cells were seeded in 96 wells at a density of 3,000 cells per well and incubated for 24 hours. The culture solution was removed, and a culture solution containing the concentrated conditioned media acquired from LPCX and LMCD1-overexpressing MCF10CA1a.cl1 cells was added to each well to a final volume of 100 μl/well. After incubation for 72 hours, the culture solution was removed from the culture, and 0.5 mg/ml of 3-(4,5-dimethylthiazol-2-yl)-2,5-diphenyltetrazolium bromide (MTT) was added to each well, followed by incubation for 2 hours. PBS containing an MTT solution was carefully removed, and 200 μl of dimethyl sulfoxide was added to each well, followed by incubation at room temperature for 5 minutes. Absorbance at 580 nm was measured using a 96-well microplate detector (Molecular Devices).

[2] = tested on: MCF10CA1a.cl1 cells, MDA-MB231 cells; assay: MTT assay of paclitaxel resistance after Smad3 EPSM adenovirus infection; assay type: cell-based, human
Excerpt: GFP, Smad3 wild-type, C-terminal phosphorylation-inhibiting mutant (3SA), Smad3 linker phosphorylation-activating mutant (STD), and a Smad3 linker phosphorylation-inhibiting mutant (EPSM) adenovirus were supplied from Dr. Sushil G. Rane (NIDDK, NIH, Bethesda, Md.). To measure transduction efficiency, GFP adenovirus was used as a control. The cells were transfected with 75 to 100 virus particles/cell in a cell solution, and each transfection procedure was repeated three times.
In particular, MCF10CA1a.cl1 cells, MDA-MB231 cells, and the cells produced according to Example 3-1 were seeded in 96-wells at a density of 3,000 cells/well and incubated for 24 hours. The culture solution was removed and a culture solution containing paclitaxel or docetaxel was added to each well to a final volume of 100 μl/well. After incubation for 72 hours, the culture solution was removed from the culture, and 0.5 mg/ml of 3-(4,5-dimethylthiazol-2-yl)-2,5-diphenyltetrazolium bromide (MTT) was added to each well, followed by incubation for 2 hours. Media containing an MTT solution was carefully removed, and 200 μl of dimethyl sulfoxide was added to each well, followed by incubation at room temperature for 5 minutes. Absorbance at 580 nm was measured using a 96-well microplate detector (Molecular Devices).

[3] = Production of paclitaxel-resistant cells by repeated paclitaxel treatment; assay type: cell-based; conditions: paclitaxel raised in increments of 0.5 nM over passages; read-out: IC50 value of paclitaxel at which the resistant cells did not die
Method: In particular, parental cells were treated with paclitaxel at a small concentration of 0.5 nM, and alive cells were repeated treated with paclitaxel three or four times while being passaged.

[4] = tested on: LMCD1-overexpressing MCF10CA1a.cl1 cells; assay: MTT assay of susceptibility to paclitaxel in LMCD1-overexpressing cells; assay type: cell-based, human; conditions: MCF10CA1a.cl1 cells when LMCD1 was overexpressed, 72 hours
Method: To investigate whether LMCD1 protein-overexpressing breast cancer cells have resistance to a taxane-based anticancer agent, an MTT assay, which is used to evaluate cell viability, was performed on MCF-10CA1a.cl1, which are human MCF-10A-based breast cancer cell lines, and MDA-MB231. The MCF-10CA1a.cl1 and MDA-MB231 cell lines are characterized as malignant breast cancer cell lines with high metastasis.
In particular, human MCF-10A-based breast cancer cell lines, i.e., MCF-10CA1a.cl1 and MDA-MB231, were maintained in a DMEM culture solution containing 10% fetal bovine serum and 1% penicillin/streptomycin (WeIGENE) in a CO2 incubator at 37° C.
To overexpress the LMCD1 protein in cells, LMCD1 was cloned into retroviral vector pLPCX, and LMCD1 retrovirus was obtained using Plat-GP cells. The metastatic breast cancer cells were infected with the LMCD1 retrovirus, LMCD1 protein-overexpressing cells were selected using puromycin, and then the selected cells were incubated in a DMEM culture solution containing 10% fetal bovine serum and 1% penicillin/streptomycin (WeIGENE) in a CO2 incubator at 37° C.
The cells were seeded in 96 wells at a density of 3,000 cells per well and incubated for 24 hours. […] Absorbance at 580 nm was measured using a 96-well microplate detector (Molecular Devices).

[5] = tested on: LMCD1 mRNA in MDA-MB231 cells; assay: RT-PCR of LMCD1 mRNA after TGF-β treatment; assay type: cell-based, human; conditions: 5 ng/ml TGF-β, 24 hours, Smad3 EPSM adenovirus-infected cells
Method: For the measurement of LMCD1 mRNA, MDA-MB231 cells were infected with GFP and Smad3. EPSM adenovirus for 2 days, and then 2 hours before TGF-β treatment, the cells were pre-treated with 10 μM of SB431542 and treated with 5 ng/ml of TGF-β, followed by incubation for 24 hours. Total RNA was extracted from the cells using a TRIzol reagent (Invitrogen) in accordance with the manufacturer's protocol. The extracted RNA was converted into cDNA using M-MLV reverse transcriptase (Promega). The cDNA was synthesized and subjected to RT-PCR using a specific primer pair by using an AccuPower™ PCR PreMix kit (Bioneer Co.). Gene mRNAs were normalized to GAPDH.

[6] = tested on: LMCD1 promoter in MCF10CA1a.cl1 cells; assay: LMCD1 promoter luciferase assay with TGF-β stimulation; assay type: cell-based, human; conditions: 3 ng/ml TGF-β, 24 hours, Smad3 EPSM adenovirus-infected cells
Method: In particular, for the LMCD1 promoter analysis, MCF10CA1a.cl1 cells were infected with GFP and Smad3. EPSM adenovirus for 2 days, and then transiently transfected with an Lmcd1 promoter using FuGENE HD (Promega). 24 hours before harvesting, the cells were stimulated with 3 ng/ml of TGF-β. Luciferase activity was analyzed using a Luciferase Assay System kit (Promega) in accordance with the manufacturer's protocol. All assays were performed in triplicate, and all values were normalized to transfection efficiency as determined by β-galactosidase activity.

| Compound | resistance to paclitaxel (MTT) [1] | susceptibility to paclitaxel (MTT) ([2]; LMCD1 depleted in Smad3 EPSM adenovirus-infected cells (EPSM-SV-shLmcd1 #1)) | paclitaxel resistance (cell viability, MTT) ([2]; Smad3 linker phosphorylation blocked (EPSM adenovirus), compared to control) | IC50 [3] [µM] | resistance to paclitaxel (cell viability, MTT) [4] | LMCD1 mRNA expression level [5] | LMCD1 transcriptional activity (luciferase) [6] |
| --- | --- | --- | --- | --- | --- | --- | --- |
| CC(=O)O[C@H]1C(=O)[C@@]2(C)[C@H]([C@H](OC(=O)c3ccccc3)[C@]3(O)C[C@H](OC(=O)[C@H](O)[C@@H](NC(=O)c4ccccc4)c4ccccc4)C(C)=C1C3(C)C)[C@]1(OC(C)=O)CO[C@@H]1C[C@@H]2O [paclitaxel] | significantly increased | restored | induced | 0.05 | increased |  |  |
| TGF-β |  |  |  |  |  | increased | increased |

Reference: patent publication US20190360054A1, “METHOD FOR DIAGNOSIS OF METASTATIC CANCER OR TAXANE-BASED DRUG-RESISTANT CANCER BY USING LMCD1 PROTEIN AND GENE CODING THEREFOR” (AICT (ADVANCED INSTITUTES OF CONVERGENCE TECHNOLOGY), priority 2016, published 2019)
